Experimental data reported in US10722479B2, “Dimethoxyphenyl inhibitors of vesicular monoamine transporter 2” (AUSPEX PHARMACEUTICALS, INC., priority 2015, dated 2020).

Test: In vitro liver microsomal stability assay
Conditions: human liver microsomes 0.5 mg per mL, NADPH 2 mM, pH 7.4, 1 uM compound, 37° C.; relative to d0 (Example 1)
Procedure: In Vitro Liver Microsomal Stability Assay
Human liver microsomal stability assays were conducted at 0.5 mg per mL liver microsome protein with NADPH (2 mM, pH 7.4).
Reactions were initiated with the addition of NADPH cofactor and were stopped at 0, 5, 15, 20 or 30 min after cofactor addition with stop reagent, acetonitrile. After quenching, plates containing samples were vibrated for 10 min (600 rpm/min) and then centrifuged at 5594 g for 15 min. Supernatant fractions were analyzed by LC-MS/MS to determine the percent remaining and estimate the degradation half-life of the test compounds.

| Structure (SMILES) | Clearance % change over d0 [%] | Half-life % change over d0 [%] |
| --- | --- | --- |
| COc1ccc(CCNCC(O)COc2cccc(C)c2)cc1OC (stereo not shown) [Example 1, [2-(3,4-dimethoxyphenyl)ethyl][2-hydroxy-3-(3-methylphenoxy)propyl]amine, reference compound] | 0.00 | 0.00 |
| [2H]C([2H])([2H])Oc1ccc(CCNCC(O)COc2cccc(C)c2)cc1OC([2H])([2H])[2H] (stereo not shown) [Example 2, [2-[3,4-bis(^2H6)methoxyphenyl]ethyl][2-hydroxy-3-(3-methylphenoxy)propyl]amine] | 1.68 | −1.65 |
| [2H]C([2H])([2H])Oc1ccc(CCNCC(O)COc2cccc(C([2H])([2H])[2H])c2)cc1OC([2H])([2H])[2H] (stereo not shown) [Example 4, [2-[3,4-bis(^2H6)methoxyphenyl]ethyl]([2-hydroxy-3-[3-(^2H3)methylphenoxy]propyl])amine] | −21.15 | 26.83 |

Continued, values first:

| Clearance % change over d0 [%] | Half-life % change over d0 [%] | Structure (SMILES) |
| --- | --- | --- |
| 0.85 | −0.84 | [2H]C([2H])([2H])Oc1ccc(CCNC([2H])([2H])C([2H])(O)C([2H])([2H])Oc2cccc(C)c2)cc1OC([2H])([2H])[2H] (stereo not shown) [Example 5, 1-([2-[3,4-bis(^2H6)methoxyphenyl]ethyl]amino)-3-(3-methylphenoxy)(^2H5) propan-2-ol] |
| −4.71 | 4.95 | [2H]C([2H])([2H])c1cccc(OCC(O)CNCCc2ccc(OC)c(OC)c2)c1 (stereo not shown) [Example 3, [2-(3,4-dimethoxyphenyl)ethyl]([2-hydroxy-3-[3-(2H3)methylphenoxy]propyl])amine] |
